Active and inactive are the calls of the source.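 How the source made its calls: active means IC50 of 10 µM or lower; inactive means IC50 above 10 µM.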

As a reminder, the IC50 is the midpoint of a concentration-inhibition curve.

In this experiment the test system is HEK-293 Gal4-VP16 UAS luciferase reporter, luminescence. Description: GAL4-VP16 reporter repression curves – cell-based, luminescence, high throughput, SRC1 series, counter-screen for SRC1 inhibitor project, dose response (AID 602236;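 further: inhibitor potency where hits lower luciferase light from Gal4-VP16 transactivation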). (In general: Counterscreens check selectivity or assay interference.)
As for `O=C(N/N=C/c1ccccc1O)/C(=C/c1ccccc1)CCO`, the concentration for half-maximal inhibition (IC50) was 7.52 µM. The same measure for `O=C(CCl)N(c1ccccc1)C1CCS(=O)(=O)C1` (stereo not given): 16.2 µM (inactive); for `COc1ccc(C(O)(C(C)C)C(CN2CCOCC2)c2ccc(Cl)cc2)cc1` (stereo not given): 20 µM (inactive). The same measure for `Cc1c(/C(O)=C2/C(=O)C(=O)N(Cc3cccnc3)C2c2ccccn2)cnn1-c1ccccc1` (stereo not given): > 35.9 µM (inactive); for `Fc1cccc(CSc2nnc3ccc(-c4ccncc4)nn23)c1`: > 35.8 µM (inactive). As for `O=C(NC(=S)Nc1ccc(N2CCN(C(=O)c3ccccc3)CC2)cc1)c1cccs1`, the figure is 10.5 µM (inactive); as for `CN(C)C(=O)c1cccc(COc2ccc(N3C(N)=NC(N)=NC3(C)C)cc2Cl)c1`, > 35.8 µM (inactive).

Regarding `O=C(NC1CCCCC1)C(c1cccnc1)N(C(=O)CCl)c1cccc(Cl)c1` (stereo not given), the IC50 was 4.71 µM. The same measure for `COc1ccc2[nH]c(=O)c(CN(CCN3CCCC3)C(=O)Nc3ccccc3Cl)cc2c1`: 23.8 µM (inactive); for `Cc1cccc(C)c1-n1nnnc1C(c1cccs1)N1CCC2(CC1)C(=O)NCN2c1ccccc1` (stereo not given): 14.4 µM (inactive). As for `CCn1c2ccccc2c2cnc(N=CN(C)C)c(C#N)c21`, the figure is 28.9 µM (inactive). As for `O=C(O)c1ccccc1-c1c2cc(I)c(=O)c(I)c-2oc2c(I)c(O)c(I)cc12`, the figure is > 35.9 µM (inactive); as for `COc1cccc(CNc2ncnc3ccc(-c4c(C)noc4C)cc23)c1`, > 35.9 µM (inactive). For the molecule `COc1cccc(/C=N/NC(=O)C(=O)Nc2ccccc2OC(F)(F)C(F)F)c1O`, the IC50 was 10.7 µM (inactive). Take `CC(C)(C)OC(=O)NCC(=O)Oc1cc2oc(=O)cc(-c3ccccc3)c2cc1Cl`: the IC50 is 21.8 µM (inactive). As for `Cc1nc2ccccn2c1-c1ccnc(=S)[nH]1`, the figure is > 35.8 µM (inactive); as for `C=C1C(=O)[C@@]23C[C@H]4[C@@H]5[C@@]6(C)CCC[C@@]57[C@@H]2[C@@H](O)[C@@H]1C[C@H]3[C@H]7N4C6`, 8.05 µM; as for `CCN(CC)CCNC(=O)c1ccc(NC(=O)C2CCN(c3ncnc4sc(C)c(C)c34)CC2)cc1`, 5.54 µM.

Turning to `CCCCCCCC[n+]1c(C)n(-c2ccccc2)c2ccc(NC(C)=O)cc21`, the IC50 was 10.5 µM (inactive).

Take `COc1cccc(NC(=O)CN(C)CC(=O)Nc2ccc(Cl)cc2[N+](=O)[O-])c1`: the IC50 was 20.3 µM (inactive). The same measure for `c1ccc(-c2nnc(-c3ccccn3)nc2NC2CCCCC2)cc1`: > 35.9 µM (inactive); for `C=CCn1c(O)c(C(C)=NCc2cc(OC)cc(OC)c2)c(=O)[nH]c1=O`: 7.94 µM. Consider `Cc1ccc(NC(=O)CCC(=O)N/N=C/c2ccc(O)cc2O)cc1`, for which the IC50 is 23 µM (inactive). The same measure for `Cc1ccc2occ(/C=N/NC(=O)c3ccncc3)c(=O)c2c1`: 22.8 µM (inactive); for `O=[N+]([O-])c1ccc2c(c1)-c1ccccc1C2=NO`: > 35.9 µM (inactive). The same measure for `COc1ccc2ncn(-c3ccccc3)c2c1`: 5.95 µM; for `O=C(CCl)N1N=C(c2cccs2)CC1c1ccco1` (stereo not given): 20.2 µM (inactive). `Cc1ccc(S(=O)(=O)Nc2c(NC3CCCCC3)c3ccccc3oc2=O)c(C)c1`: the IC50 is 12.8 µM (inactive).

For the molecule `Cc1nc2c(-c3ccc(F)cc3)cnn2c(N)c1-c1ccccc1`, the IC50 is 14.5 µM (inactive). Regarding `COc1cc(/C=C2\SC(N)=NC2=O)cc(OC)c1`, the IC50 was 8.33 µM. As for `CN(Cc1cnc2nc(N)nc(N)c2n1)c1ccc(C(=O)NC(CCC(=O)O)C(=O)O)c2ccccc12` (stereo not given), the figure is > 35.9 µM (inactive). The same measure for `Cc1ccc(S(=O)(=O)N2[C@@H](c3ccc(C(C)(C)C)cc3)C(C(=O)O)=CC[C@H]2c2ccc(Cl)cc2)cc1`: 16 µM (inactive); for `CC(NC(=O)COC(=O)c1cccs1)c1ccccc1` (stereo not given): > 35.9 µM (inactive); for `Cc1cc(C)nc(SCc2ccc(C(=O)N/N=C/c3cccc(O)c3O)cc2)n1`: 5.29 µM. The same measure for `Cn1nc(C(F)(F)F)c(C#N)c1N1CCN(c2ccc(F)cc2)CC1`: 7.86 µM. Regarding `Cc1ccccc1C(=O)/C(C#N)=N/Nc1c(C)n(C)n(-c2ccccc2)c1=O`, the IC50 is 5.6 µM. As for `CCC(=O)Oc1c(C(=O)CC)cc2c(C)cc(=O)oc2c1C`, the figure is 18.9 µM (inactive).

`COc1ccc2c(C#N)c3ccccn3c2c1`: the IC50 was > 35.8 µM (inactive). For the molecule `O=C(Nc1cccnc1)c1ccc(C(=O)Nc2cccnc2)cc1`, the IC50 was > 35.9 µM (inactive). As to `CCN(C(=O)c1cc(S(=O)(=O)N2CCCCC2)c[nH]1)c1ccc(OC)cc1`, the IC50 was 12.8 µM (inactive).

Regarding `Cc1ccc(/C=C2\SC(=S)N(CCCC(=O)NC3CCCC3)C2=O)cc1`, the half-inhibitory concentration (IC50) was 5.37 µM. Turning to `CC(C)(C)c1cc(C(=O)N/N=C/c2ccc(O)cc2)n(-c2ccccc2)n1`, the IC50 is 21.9 µM (inactive). The same measure for `COc1ccc(/C=C2\CC/C(=C\c3ccc(OC)c(OC)c3)C2=O)cc1OC`: 5.39 µM; for `Cc1nn(C(C)(C)C)c(C)c1/C=N/OC(=O)Nc1ccc(Cl)c(Cl)c1`: 13.9 µM (inactive); for `Cc1c2ccncc2cc2c1[nH]c1ccccc12`: 6.48 µM. `c1cc2c(cn1)cnc1cscc12`: the IC50 was 11.8 µM (inactive).

As to `O=C(Nc1c(-c2ccccc2)[nH][nH]c1=O)c1cccc(C(F)(F)F)c1`, the IC50 was > 35.8 µM (inactive).

In the case of `COc1ccc(-c2cc(=O)oc3c(C)c(O)c(CN(C)C)cc23)cc1`, the IC50 was 15 µM (inactive). The same measure for `Cc1c(CC(=O)NCCCC(=O)O)c(=O)oc2cc3c(cc12)CCC(C)(C)O3`: 18.4 µM (inactive); for `O=c1ccc2c(ccc3ncccc32)o1`: 18.1 µM (inactive); for `S=C(Nc1ccccc1)Nc1ccc(OCc2ccc(Cl)cc2Cl)cc1`: 6.69 µM. As for `CCc1ccc(/C=C2\SC(=S)N(CCCC(=O)NCCCN3CCOCC3)C2=O)cc1`, the figure is 12.7 µM (inactive).

As to `CN(C)C(=O)c1ccc(-c2n[nH]c(=O)c3ccccc23)cc1`, the IC50 was 16.2 µM (inactive). As for `CC1CCN(C(=O)c2scc3c2OCCO3)CC1`, the IC50 was 16.4 µM (inactive).

As for `COc1ccc(/C=C2/SC(=S)N(CCC(=O)O)C2=O)cc1`, the IC50 is > 35.9 µM (inactive).

For the molecule `COc1cc2c(cc1OC)C(C)N(C(=O)c1cccc([N+](=O)[O-])c1)CC2` (stereo not given), the IC50 is 8.73 µM.

`COC(=O)c1cccc2c1-c1ccccc1/C2=N/O`: the IC50 was 4.87 µM. The same measure for `Cc1ccc(NC(=O)C2CCN(c3ncnc4sc(C)c(C)c34)CC2)cc1S(=O)(=O)N(C)C`: 13.4 µM (inactive); for `N#Cc1cc2ccncc2c2ccccc12`: 6.89 µM; for `CCN(c1ccccc1)S(=O)(=O)c1cc(C(=O)Nc2ccc(Br)cc2)ccc1F`: 8.24 µM. The same measure for `Cn1nc(C(F)(F)F)c(C#N)c1N1CCN(c2ccccc2)CC1`: 6.34 µM; for `COc1cc2c(cc1OC)C(NC(=O)C(F)(F)F)CNC2=O` (stereo not given): 10.8 µM (inactive).

As to `CCOc1ccc(/C=C2\SC(=S)N(CCCC(=O)NCCCN3CCOCC3)C2=O)cc1`, the IC50 is 21.9 µM (inactive).

Take `Cc1nc2c(-c3ccc(Cl)cc3)c(C)[nH]n2c(=O)c1Cc1ccccc1`: the IC50 was 6.96 µM. As for `Cc1sc2ncnc(N3CCC(C(=O)N(C)CC(=O)Nc4cccc(F)c4)CC3)c2c1C`, the figure is 15 µM (inactive); as for `CN(Cc1cnc2nc(N)nc(N)c2n1)c1ccc(C(=O)N[C@@H](CCC(=O)O)C(=O)O)cc1`, > 35.9 µM (inactive); as for `O=C(Nc1cccc(Cl)c1)Nc1nnc(-c2ccncc2)s1`, 5.14 µM. The same measure for `O=C(N/N=C(\c1ccccc1)c1ccccn1)c1ccccc1Cl`: 10.8 µM (inactive). The same measure for `Nc1ccc(Oc2ccccc2-c2ccccc2)cc1`: 19 µM (inactive); for `COc1cc(C(=O)N/N=C(\c2ccccc2)c2ccccn2)cc(OC)c1OC`: 8.61 µM; for `O=C(Nc1nc(-c2ccccn2)cs1)c1cccc(S(=O)(=O)N2CCOCC2)c1`: 8.59 µM. As for `O=[N+]([O-])c1ccc(N(CCO)CCO)c2c1no[n+]2[O-]`, the IC50 was 7.87 µM. As for `CC[C@@]1(O)C(=O)OCc2c1cc1n(c2=O)Cc2cc3c(NC(=O)CN)cccc3nc2-1`, the figure is > 35.9 µM (inactive); as for `CCn1c(Oc2cccc(Br)c2)nc2c1c(=O)n(C)c(=O)n2C`, 25.8 µM (inactive); as for `CCn1c(Oc2ccc(F)cc2)nc2c1c(=O)n(C)c(=O)n2C`, 12.4 µM (inactive).

For `COc1cc(C(=O)NC(=S)NNC(=O)c2cnccn2)cc(OC)c1OC`, the IC50 was 11.9 µM (inactive).

As for `O=C(N/N=C/c1coc2ccc(Cl)cc2c1=O)c1ccc(O)cc1`, the IC50 was > 35.9 µM (inactive).

As for `Fc1ccc(CSc2nnc(-c3ccncc3)o2)cc1`, the IC50 is 7.85 µM. As for `CCCCN(CCCC)c1ncnc2nc[nH]c12`, the figure is 6.97 µM; as for `Cc1ccc(N(Cc2cc(=O)[nH]c3ccccc23)C(=O)CCl)c(C)c1`, 6.66 µM; as for `CN(C)C=Nc1c(C(=O)c2ccccc2)sc2nccc(N(C)C)c12`, > 35.9 µM (inactive).

For the molecule `O=C(Nc1ccncc1)c1ccccc1[N+](=O)[O-]`, the IC50 is 14.2 µM (inactive). As for `Nc1ccc(-c2cc3ccccc3oc2=O)cc1`, the figure is > 35.8 µM (inactive); as for `C=CCn1c(Oc2ccccc2F)nc2c1c(=O)n(C)c(=O)n2C`, 8.46 µM. As for `O=C(NC(NC(=S)N1CCOCC1)C(Cl)(Cl)Cl)c1ccc(Cl)cc1` (stereo not given), the figure is 15.5 µM (inactive); as for `CC(=O)N1CCN(c2ccc(Oc3ncnc4sccc34)cc2)CC1`, 9.64 µM.

As for `CC1CCCCN1c1ncnc2ccccc12` (stereo not given), the IC50 was 13.4 µM (inactive). As for `COc1ccc(OC)c(/C=C2\NC(=O)NC2=O)c1`, the IC50 was 10.8 µM (inactive). As for `O=C(N/N=C/c1cc([N+](=O)[O-])ccc1O)c1cccc(N2CCCC2=O)c1`, the figure is 18.3 µM (inactive); as for `COc1ccccc1/C=C\C(=O)NCC(=O)N/N=C/c1cccc(OC)c1O`, 15.5 µM (inactive).

These data come from PubChem BioAssay AID602236 (The Scripps Research Institute Molecular Screening Center, 2012).
